Data taken from US20250296909A1, “NOVEL BENZENE DERIVATIVE AND IMMUNOSUPPRESSION-RELATED USE THEREOF” (PROVIBIO CO., LTD., priority 2021, published 2025).
Where two headings read alike, the source gives them in different places.

Experiments:
[1] = system: T lymphocyte cell line Jurkat E6-1; experiment: Cytotoxicity experiment (CCK-8, relative cell survival); assay type: cell-based; settings: 24 hours, untreated cells = 100%
Procedure: To evaluate the cytotoxicity of the compound according to the present invention, the following experiment was conducted.
The T lymphocyte cell line Jurkat E6-1, purchased from the Korean Cell Line Bank, was cultured in RPMI-1640 medium comprising 10% FBS, 100 U/mL penicillin, and 100 μg/mL streptomycin. After culturing, the cells were harvested and centrifuged at 1,300 rpm for 5 minutes. After removal of the supernatant, the cells were resuspended in the same medium at a concentration of approximately 2.2×10^5 cells/mL, and 90 μL of the cell suspension was distributed per well into a 96-well plate (Costar 96 well cell culture plate, Corning). After treating 10 μL of each compound at different concentrations onto the respective wells of the plate, it was cultured for 24 hours at 37° C. in a 5% CO2 incubator. Subsequently, 10 μL of CCK-8 was added to each well, and it was cultured again for 2 hours at 37° C. in a 5% CO2 incubator. Absorbance was then measured at 450 nm to determine the relative cell survival rate compared to untreated cells, as shown in Table 4.
The values listed in Table 4 represent the relative cell survival rates in the groups treated with each compound at different concentrations, with the cell survival rate of untreated cells set as 100%.

spleen T cells = experiment: T cell proliferation inhibition (CFSE, FACS), CD3/CD28-activated spleen T cells; assay type: cell-based, C57BL/6 mice; settings: for inhibition at 10 µM / inhibition at 30 µM / inhibition at 50 µM: Mus musculus, T-cell, read-out: Proliferation inhibition rate (%)
Procedure: To investigate whether the compounds obtained in the Preparation Example have an inhibitory effect on T cell proliferation, the T cell proliferation was determined ex vivo using the fluorescent dye carboxyfluorescein diacetate succinimidyl ester (CFSE), which binds to intracellular molecules by covalent bonds.
Spleens were harvested and minced from C57BL/6 mice at 7 weeks of age, and then single cells were isolated using a strainer (40 μm pore size, SPL). Red blood cells were removed using ACK (Ammonium-Chloride-Potassium) lysis buffer to isolate only leukocytes. Subsequently, CD90.2 microbeads (130-121-278, Miltenyi Biotech.) were added, and subjected to react at 4° C. for 20 minutes. After that, spleen T cells were isolated using a MACS Magnetic Stand and LS column. The isolated T cells from the spleen were resuspended in 1 mL of Free media (RPMI-1640+200 U/mL penicillin+200 μg/mL streptomycin), followed by the addition of 0.3 μL of CFSE (10 mM), and reacted at 37° C. for 5 minutes. Subsequently, 10 mL of Free media was added to stop the reaction, and the cells were centrifuged to obtain the cell pellet. RPMI 1640 medium containing 10% FBS, 100 U/mL penicillin, and 100 μg/mL streptomycin was added to suspend the cells, and 2×10^5 cells per well were seeded into a 96-well plate and T cells were activated by treatment with CD3 and CD28 antibodies (each at 0.5 μg/mL).
The compound diluted in DMSO was treated in triplicate at concentrations of 10 μM, 30 μM, and 50 μM, respectively. After incubation at 37° C. with 5% CO2 for 3 days, cell proliferation levels were determined using a FACS Canto machine.
In the FACS graph of FIG. 1, the y-axis represents the quantity (number) of cells, while the x-axis represents the fluorescence level of the cells. […] This reduction in CFSE fluorescence results in a leftward shift along the x-axis in the graph. This indicates cell proliferation.
To collectively indicate the proliferation inhibition rate for the experimental results, the relative value of the proliferation amount after compound administration to the proliferation amount after CD3/CD28+DMSO administration was calculated. Subsequently, it was converted into an inhibition amount and expressed as a percentage, thereby determining the proliferation inhibition rate. Specifically, the proliferation inhibition rate was calculated as follows: […]

[2] = Table 2, 10 μM, 3 days, relative to CD3/CD28+DMSO
[3] = Table 2, 30 μM, 3 days, relative to CD3/CD28+DMSO
[4] = Table 2, 50 μM, 3 days, relative to CD3/CD28+DMSO
[5] = 72 h, Table 2, 10 μM, 3 days, relative to CD3/CD28+DMSO
[6] = 72 h, Table 2, 30 μM, 3 days, relative to CD3/CD28+DMSO
[7] = 72 h, Table 2, 50 μM, 3 days, relative to CD3/CD28+DMSO
[8] = Table 3 (compounds not belonging to Formula 1), 10 μM
[9] = Table 3 (compounds not belonging to Formula 1), 30 μM
[10] = Table 3 (compounds not belonging to Formula 1), 50 μM

Structure (SMILES) | Relative cell survival rate (%) ([1]; 10 μM) | Relative cell survival rate (%) ([1]; 20 μM) | Relative cell survival rate (%) ([1]; 30 μM) | Relative cell survival rate (%) ([1]; 50 μM) | also measured
CCCCCCCCCCCCNC(=O)c1ccccc1[N+](=O)[O-] [Compound 50] | 74% | 75% | 70% | 68% | Proliferation inhibition rate (%) (spleen T cells; [2]): 0%; Proliferation inhibition rate (%) (spleen T cells; [3]): 66%; Proliferation inhibition rate (%) (spleen T cells; [4]): 97%
CCCCCCCCCCCCNC(=O)c1cc2ccccc2cc1N [Compound 23] | 66% | 62% | 62% | 54% | –
CCCCCCCCCCCCNC(=O)c1ccncc1N [Compound 68] | 92% | 91% | 88% | 82% | inhibition at 10 µM (spleen T cells; [5]): 57%; inhibition at 30 µM (spleen T cells; [6]): 67%; inhibition at 50 µM (spleen T cells; [7]): 100%
CCCCCC(=O)Nc1cccc(CNC(=O)c2ccccc2Br)c1 [Compound 49] | 98% | 98% | 98% | 98% | –
CCCCCCCCCCCC(=O)Nc1ccccc1Br [Compound 42] | 110% | 109% | 104% | 103% | –
CCCCCCCCCCCCNC(=O)c1ncccn1 [Compound 79] | – | – | – | – | inhibition at 10 µM (spleen T cells; [5]): 46%; inhibition at 30 µM (spleen T cells; [6]): 88%; inhibition at 50 µM (spleen T cells; [7]): 100%
CCCCCCCCCCCCNC(=O)c1ccc(Cl)cc1Cl [Compound 60] | – | – | – | – | inhibition at 10 µM (spleen T cells; [5]): 10%; inhibition at 30 µM (spleen T cells; [6]): 72%; inhibition at 50 µM (spleen T cells; [7]): 98%
CCCCCCCCCCCCNC(=O)c1cccnc1S [Compound 80] | – | – | – | – | Proliferation inhibition rate (%) (spleen T cells; [2]): 43%; Proliferation inhibition rate (%) (spleen T cells; [3]): 100%; Proliferation inhibition rate (%) (spleen T cells; [4]): 100%
O=C(NCCCCCCCCCC1CO1)c1ccccc1Br (stereo not drawn) [Compound 17] | 106% | 80% | 80% | 66% | –
CCCCCCCCCCCCNC(=O)c1ccc2cccc(O)c2n1 [Compound 21] | 101% | 106% | 109% | 124% | –
CCCCCCCCCCCCNC(=O)c1ccc2ccccc2n1 [Compound 22] | 42% | 42% | 39% | 36% | –
O=C(NCCCc1ccccc1)c1ccccc1Br [Compound 4] | – | – | – | – | inhibition at 10 µM (spleen T cells; [8]): 23%; inhibition at 30 µM (spleen T cells; [9]): 12%; inhibition at 50 µM (spleen T cells; [10]): 16%
CCCCCC(=O)Nc1ccc(CNC(=O)c2ccccc2Br)cc1 [Compound 47] | 98% | 97% | 97% | 96% | –
CCCCCCCCCCCCNC(=O)c1cc(Cl)cc(Cl)c1O [Compound 28] | – | – | – | – | inhibition at 10 µM (spleen T cells; [5]): 11%; inhibition at 30 µM (spleen T cells; [6]): 47%; inhibition at 50 µM (spleen T cells; [7]): 91%
CCCCCCCCCCCCNS(=O)(=O)c1cnccc1O [Compound 72] | – | – | – | – | inhibition at 10 µM (spleen T cells; [5]): 68%; inhibition at 30 µM (spleen T cells; [6]): 80%; inhibition at 50 µM (spleen T cells; [7]): 86%
CCCCCCCCCCCCNC(=O)c1nccc2ccccc12 [Compound 20] | 113% | 108% | 107% | 105% | –
CCCCCC(=O)Nc1ccccc1CNC(=O)c1ccccc1Br [Compound 48] | 100% | 99% | 99% | 98% | –
O=C(Nc1ccccc1Br)c1ccccc1Br [Compound 9] | – | – | – | – | inhibition at 10 µM (spleen T cells; [8]): 0%; inhibition at 30 µM (spleen T cells; [9]): 0%; inhibition at 50 µM (spleen T cells; [10]): 0%; cell proliferation read by FACS (FIG. 2) (spleen T cells; even at a concentration of 50 μM): no inhibition of cell proliferation
O=C(Nc1ccccc1)c1ccncc1Br [Compound 1] | – | – | – | – | inhibition at 10 µM (spleen T cells; [8]): 9%; inhibition at 30 µM (spleen T cells; [9]): 6%; inhibition at 50 µM (spleen T cells; [10]): 7%
Cc1ccccc1NC(=O)c1ccccc1Br [Compound 2] | – | – | – | – | inhibition at 10 µM (spleen T cells; [8]): 11%; inhibition at 30 µM (spleen T cells; [9]): 10%; inhibition at 50 µM (spleen T cells; [10]): 11%
CCCCCCCCCCCCNC(=O)c1ncccc1Cl [Compound 11] | – | – | – | – | inhibition at 10 µM (spleen T cells; [5]): 10%; inhibition at 30 µM (spleen T cells; [6]): 62%; inhibition at 50 µM (spleen T cells; [7]): 99%
CCCCCCCCCCCCNC(=O)c1ccnc(C)c1 [Compound 15] | – | – | – | – | inhibition at 10 µM (spleen T cells; [5]): 10%; inhibition at 30 µM (spleen T cells; [6]): 35%; inhibition at 50 µM (spleen T cells; [7]): 90%
CCCCCCCCCCCCNC(=O)c1cccnc1OC [Compound 32] | – | – | – | – | inhibition at 10 µM (spleen T cells; [5]): 12%; inhibition at 30 µM (spleen T cells; [6]): 42%; inhibition at 50 µM (spleen T cells; [7]): 54%
Cc1ccccc1NC(=O)c1ccccc1F [Compound 3] | – | – | – | – | inhibition at 10 µM (spleen T cells; [8]): 9%; inhibition at 30 µM (spleen T cells; [9]): 15%; inhibition at 50 µM (spleen T cells; [10]): 18%
CCCCCCCCCCCCNS(=O)(=O)c1ccccc1N [Compound 46] | – | – | – | – | Proliferation inhibition rate (%) (spleen T cells; [2]): 47%; Proliferation inhibition rate (%) (spleen T cells; [3]): 94%; Proliferation inhibition rate (%) (spleen T cells; [4]): 93%
CCCCCCCCCCCCNC(=O)c1cccc2ccccc12 [Compound 18] | 102% | 101% | 99% | 99% | –
CCCCCCCCCCC(CNCc1ccccc1Br)Cc1ccccc1Br (stereo not drawn) [Compound 44] | 100% | 98% | 94% | 93% | –
CCCCCCCCCCCCNC(=O)c1cccnc1SC [Compound 24] | 71% | 68% | 61% | 54% | –
